# Test results taken from ChEMBL document CHEMBL4825722, “Discovery of Potent Selective Nonzinc Binding Autotaxin Inhibitor BIO-32546” (ACS Med Chem Lett, 2021).
# Tests used:
# Autotaxin = Autotaxin (Homo sapiens, UniProt Q13822); assay: Inhibition of human ATX assessed as reduction in LPA formation using FS-3 as substrate preincubated for 30 mins followed by substrate addition and measured after 2 hrs by FRET assay
# [1] = Clearance in dog at 0.2 mg/kg, iv; format: ADME, organism-based, Canis lupus familiaris; details: in vivo
# [2] = Clearance in cynomolgus monkey at 0.2 mg/kg, iv; format: ADME, organism-based, Macaca fascicularis; details: in vivo
# [3] = Volume of distribution at steady state in cynomolgus monkey at 0.2 mg/kg, iv; format: ADME, organism-based, Macaca fascicularis; details: in vivo, read-out: Vdss
# [4] = Half life in rat at 1.0 mg/kg, iv; format: ADME, organism-based; details: in vivo
# [5] = Half life in dog at 0.2 mg/kg, iv; format: ADME, organism-based, Canis lupus familiaris; details: in vivo
# [6] = AUC (0 to 24 hrs) in dog at 0.2 mg/kg, iv; format: ADME, organism-based, Canis lupus familiaris; set-up: time < 24 hr, route intravenous, dose 0.2 mg/kg; details: in vivo
# [7] = AUC (0 to 24 hrs) in dog at 1.0 mg/kg, po; format: ADME, organism-based, Canis lupus familiaris; set-up: time < 24 hr, route oral, dose 1 mg/kg; details: in vivo
# [8] = AUC (0 to 24 hrs) in cynomolgus monkey at 0.2 mg/kg, iv; format: ADME, organism-based, Macaca fascicularis; set-up: time < 24 hr, route intravenous, dose 0.2 mg/kg; details: in vivo
# [9] = AUC (0 to 24 hrs) in cynomolgus monkey at 1.0 mg/kg, po; format: ADME, organism-based, Macaca fascicularis; set-up: time < 24 hr, route oral, dose 1 mg/kg; details: in vivo
# [10] = Cmax in dog at 1.0 mg/kg, po; format: ADME, organism-based, Canis lupus familiaris; set-up: route oral, dose 1 mg/kg; details: in vivo
# [11] = Cmax in cynomolgus monkey at 1.0 mg/kg, po; format: ADME, organism-based, Macaca fascicularis; set-up: route oral, dose 1 mg/kg; details: in vivo
# [12] = Tmax in cynomolgus monkey at 1.0 mg/kg, po; format: ADME, organism-based, Macaca fascicularis; details: in vivo
# [13] = Oral bioavailability in cynomolgus monkey at 1.0 mg/kg; format: ADME, organism-based, Macaca fascicularis; details: in vivo
# [14] = Protein binding in rat plasma assessed as unbound fraction; format: ADME, cell-free
# [15] = Protein binding in human plasma assessed as unbound fraction at 2 uM by rapid equilibrium dialysis method; format: ADME, cell-free
# Cytochrome P450 1A2 = biological target: T1, Cytochrome P450 1A2 (Homo sapiens, UniProt P05177); assay: Inhibition of CYP1A2 in human liver microsomes incubated for 15 mins in presence of NADPH by LC-MS/MS analysis; format: ADME
# T1 sequence (P05177 whole entry): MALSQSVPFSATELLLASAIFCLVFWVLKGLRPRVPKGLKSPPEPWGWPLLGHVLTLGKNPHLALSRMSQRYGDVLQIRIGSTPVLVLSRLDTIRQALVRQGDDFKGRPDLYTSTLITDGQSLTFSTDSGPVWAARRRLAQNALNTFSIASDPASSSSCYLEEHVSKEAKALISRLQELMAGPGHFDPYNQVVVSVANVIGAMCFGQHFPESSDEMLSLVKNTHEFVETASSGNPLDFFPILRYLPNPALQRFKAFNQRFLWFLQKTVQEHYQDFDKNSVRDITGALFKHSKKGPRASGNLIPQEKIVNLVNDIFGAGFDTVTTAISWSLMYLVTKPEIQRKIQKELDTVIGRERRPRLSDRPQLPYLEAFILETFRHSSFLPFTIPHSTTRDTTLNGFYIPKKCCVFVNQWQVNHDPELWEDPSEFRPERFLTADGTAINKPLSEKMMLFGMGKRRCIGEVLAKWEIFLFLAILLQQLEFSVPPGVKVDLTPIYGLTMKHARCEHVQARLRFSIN
# Cytochrome P450 2C19 = Cytochrome P450 2C19 (Homo sapiens, UniProt P33261); assay: Inhibition of CYP2C19 in human liver microsomes incubated for 30 mins in presence of NADPH by LC-MS/MS analysis; format: ADME
# Cytochrome P450 2D6 = Cytochrome P450 2D6 (Homo sapiens, UniProt P10635); assay: Inhibition of CYP2D6 in human liver microsomes incubated for 15 mins in presence of NADPH by LC-MS/MS analysis; format: ADME
# [16] = Clearance in C57BL/6 mouse plasma at 2.32 mg/kg; format: ADME, organism-based
# [17] = AUC (0 to 24 hrs) in C57BL/6 mouse brain at 2.32 mg/kg, iv; format: ADME, organism-based; set-up: time < 24 hr, route intravenous, dose 2.32 mg/kg
# [18] = Cmax in C57BL/6 mouse brain at 2.32 mg/kg, iv; format: ADME, organism-based; set-up: route intravenous, dose 2.32 mg/kg
# [19] = Cmax in C57BL/6 mouse plasma at 10 mg/kg, po; format: ADME, organism-based; set-up: route oral, dose 10 mg/kg
# [20] = Cmax in C57BL/6 mouse brain at 10 mg/kg, po; format: ADME, organism-based; set-up: route oral, dose 10 mg/kg
# [21] = Tmax in C57BL/6 mouse brain at 2.32 mg/kg, iv; format: ADME, organism-based
# [22] = Tmax in C57BL/6 mouse plasma at 10 mg/kg, po; format: ADME, organism-based
# [23] = Oral bioavailability in C57BL/6 mouse at 10 mg/kg; format: ADME, organism-based; details: in vivo
# [24] = Protein binding in C57BL/6 mouse plasma assessed as unbound fraction; format: ADME, cell-free
# [25] = Unbound Cmax in C57BL/6 mouse brain at 10 mg/kg, po; format: ADME, organism-based; details: in vivo
# Rattus norvegicus [26] = assay: Effect on Sprague-Dawley rat CFA inflammatory […] model assessed as reduction in 20:4 LPA level at 10 mg/kg, po after 6 hrs by LC-MS/MS analysis; format: functional; set-up: scale not given: the % may be the effect or the level left
# Rattus norvegicus [27] = assay: Effect on Sprague-Dawley rat CFA inflammatory […] model assessed as reduction in 20:4 LPA level at 3 mg/kg, po after 6 hrs by LC-MS/MS analysis; format: functional; set-up: scale not given: the % may be the effect or the level left
# [28] = biological target: Sphingosine 1-phosphate receptor 2 (Homo sapiens, UniProt O95136); assay: Inhibition of S1P2 (unknown origin)
# [29] = biological target: T2, Sphingosine 1-phosphate receptor 4 (Homo sapiens, UniProt O95977); assay: Inhibition of S1P4 (unknown origin)
# T2 sequence (O95977 whole entry): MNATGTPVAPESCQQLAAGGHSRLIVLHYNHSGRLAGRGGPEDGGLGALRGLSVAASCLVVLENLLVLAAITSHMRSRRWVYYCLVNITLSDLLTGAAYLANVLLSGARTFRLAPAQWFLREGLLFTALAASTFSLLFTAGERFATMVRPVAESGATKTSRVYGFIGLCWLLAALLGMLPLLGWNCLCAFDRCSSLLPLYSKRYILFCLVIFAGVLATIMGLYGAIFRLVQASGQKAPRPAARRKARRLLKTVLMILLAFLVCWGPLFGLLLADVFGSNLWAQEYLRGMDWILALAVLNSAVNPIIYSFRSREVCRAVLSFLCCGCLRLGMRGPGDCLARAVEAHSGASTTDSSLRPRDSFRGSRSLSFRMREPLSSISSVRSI
# [30] = biological target: Sphingosine 1-phosphate receptor 5 (Homo sapiens, UniProt Q9H228); assay: Inhibition of S1P5 (unknown origin)
# [31] = biological target: Voltage-gated inwardly rectifying potassium channel KCNH2 (Homo sapiens, UniProt Q12809); assay: Inhibition of human ERG by automated patch-clamp assay
# [32] = Drug concentration in Sprague-Dawley rat at 10 mg/kg, po after 6 hrs by LC-MS/MS analysis; format: ADME, organism-based; details: in vivo, read-out: Drug uptake
# Rattus norvegicus [33] = assay: Effect on po dosed Sprague-Dawley rat CFA inflammatory pain model assessed as reduction in LPA level administered day 2 post CFA challenge and measured after 6 hrs by LC-MS/MS analysis; details: dose 0.1-10 mg/kg
# Sequence of Cytochrome P450 2C19 (P33261 whole entry): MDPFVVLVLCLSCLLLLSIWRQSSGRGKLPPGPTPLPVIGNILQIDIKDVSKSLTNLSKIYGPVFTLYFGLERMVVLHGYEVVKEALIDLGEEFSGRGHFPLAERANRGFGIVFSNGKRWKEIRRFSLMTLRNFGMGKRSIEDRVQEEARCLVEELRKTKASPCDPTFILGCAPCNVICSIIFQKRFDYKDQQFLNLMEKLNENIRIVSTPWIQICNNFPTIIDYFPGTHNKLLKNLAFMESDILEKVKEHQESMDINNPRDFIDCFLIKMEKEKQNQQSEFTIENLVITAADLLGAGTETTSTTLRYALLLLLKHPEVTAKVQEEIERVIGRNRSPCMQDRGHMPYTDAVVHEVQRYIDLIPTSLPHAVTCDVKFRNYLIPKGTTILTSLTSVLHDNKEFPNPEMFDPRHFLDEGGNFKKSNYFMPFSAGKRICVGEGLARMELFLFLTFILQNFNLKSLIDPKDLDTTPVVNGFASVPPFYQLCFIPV
# Sequence of Sphingosine 1-phosphate receptor 5 (Q9H228 whole entry): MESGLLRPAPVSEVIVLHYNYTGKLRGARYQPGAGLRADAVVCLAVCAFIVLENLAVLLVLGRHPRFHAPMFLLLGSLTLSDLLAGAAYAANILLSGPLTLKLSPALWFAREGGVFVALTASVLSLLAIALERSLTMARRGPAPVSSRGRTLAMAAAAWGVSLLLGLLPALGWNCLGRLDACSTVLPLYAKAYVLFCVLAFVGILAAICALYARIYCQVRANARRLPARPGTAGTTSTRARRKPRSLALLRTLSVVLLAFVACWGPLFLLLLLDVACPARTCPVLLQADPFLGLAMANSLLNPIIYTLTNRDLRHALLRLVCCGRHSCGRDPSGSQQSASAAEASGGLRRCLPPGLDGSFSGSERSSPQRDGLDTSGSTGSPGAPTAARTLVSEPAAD
# Sequence of Cytochrome P450 2D6 (P10635 whole entry): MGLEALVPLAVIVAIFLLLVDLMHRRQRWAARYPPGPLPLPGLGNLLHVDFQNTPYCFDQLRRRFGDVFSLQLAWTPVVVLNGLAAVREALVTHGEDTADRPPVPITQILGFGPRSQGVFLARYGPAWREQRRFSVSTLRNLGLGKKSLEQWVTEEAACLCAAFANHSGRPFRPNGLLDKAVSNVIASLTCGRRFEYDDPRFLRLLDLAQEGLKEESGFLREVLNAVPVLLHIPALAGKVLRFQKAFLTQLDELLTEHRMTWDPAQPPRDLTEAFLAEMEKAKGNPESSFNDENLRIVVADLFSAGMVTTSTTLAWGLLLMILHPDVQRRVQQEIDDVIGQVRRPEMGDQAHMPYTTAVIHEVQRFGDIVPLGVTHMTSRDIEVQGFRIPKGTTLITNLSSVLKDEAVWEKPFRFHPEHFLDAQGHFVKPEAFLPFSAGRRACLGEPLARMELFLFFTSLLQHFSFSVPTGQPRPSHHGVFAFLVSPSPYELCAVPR
# Sequence of Sphingosine 1-phosphate receptor 2 (O95136 whole entry): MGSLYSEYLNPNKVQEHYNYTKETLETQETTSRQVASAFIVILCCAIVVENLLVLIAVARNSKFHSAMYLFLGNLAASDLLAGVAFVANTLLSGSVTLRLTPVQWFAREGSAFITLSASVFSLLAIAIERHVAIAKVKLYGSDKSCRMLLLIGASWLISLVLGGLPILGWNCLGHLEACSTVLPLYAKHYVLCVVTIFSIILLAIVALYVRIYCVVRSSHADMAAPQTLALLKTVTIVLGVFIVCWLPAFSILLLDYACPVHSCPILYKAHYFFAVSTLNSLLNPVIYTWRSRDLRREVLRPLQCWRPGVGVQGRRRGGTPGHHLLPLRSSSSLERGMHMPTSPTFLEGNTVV
# Sequence of Voltage-gated inwardly rectifying potassium channel KCNH2 (Q12809 whole entry): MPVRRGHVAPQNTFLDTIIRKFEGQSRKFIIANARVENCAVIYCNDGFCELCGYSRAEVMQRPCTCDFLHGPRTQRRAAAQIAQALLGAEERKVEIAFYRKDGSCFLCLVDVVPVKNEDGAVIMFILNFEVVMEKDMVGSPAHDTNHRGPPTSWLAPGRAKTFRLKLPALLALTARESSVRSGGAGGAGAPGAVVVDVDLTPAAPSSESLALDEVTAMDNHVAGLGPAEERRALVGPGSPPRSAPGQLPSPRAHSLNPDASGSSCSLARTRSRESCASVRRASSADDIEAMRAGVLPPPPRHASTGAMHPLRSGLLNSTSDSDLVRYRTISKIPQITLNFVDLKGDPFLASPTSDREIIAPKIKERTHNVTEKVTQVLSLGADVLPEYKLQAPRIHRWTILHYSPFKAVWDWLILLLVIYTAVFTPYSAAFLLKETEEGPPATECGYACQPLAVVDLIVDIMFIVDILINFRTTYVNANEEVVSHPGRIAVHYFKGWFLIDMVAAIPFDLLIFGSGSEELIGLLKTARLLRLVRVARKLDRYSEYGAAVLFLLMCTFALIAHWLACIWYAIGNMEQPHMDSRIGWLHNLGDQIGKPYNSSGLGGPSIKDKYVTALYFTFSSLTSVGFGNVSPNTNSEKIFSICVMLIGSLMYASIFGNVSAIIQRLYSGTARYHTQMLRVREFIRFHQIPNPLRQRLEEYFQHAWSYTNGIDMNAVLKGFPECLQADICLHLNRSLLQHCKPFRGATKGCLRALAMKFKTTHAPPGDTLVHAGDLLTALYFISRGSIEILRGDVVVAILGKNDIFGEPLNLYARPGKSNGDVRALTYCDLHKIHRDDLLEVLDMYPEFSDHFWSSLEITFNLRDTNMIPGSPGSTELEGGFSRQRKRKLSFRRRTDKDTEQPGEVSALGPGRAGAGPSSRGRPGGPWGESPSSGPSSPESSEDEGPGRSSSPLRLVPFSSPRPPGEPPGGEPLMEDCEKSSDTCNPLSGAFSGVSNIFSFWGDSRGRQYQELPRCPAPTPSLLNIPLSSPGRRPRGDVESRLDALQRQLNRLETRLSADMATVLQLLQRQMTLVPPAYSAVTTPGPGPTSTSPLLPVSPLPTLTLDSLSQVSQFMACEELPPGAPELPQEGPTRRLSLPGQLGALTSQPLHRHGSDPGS
smiles,measurement,setting,value
C[C@@H](c1ccc2ccc(O[C@H]3CC[C@@H](C(F)(F)F)CC3)c(C(F)(F)F)c2c1)N1C2CCC1CC(C(=O)O)C2 (some centres not stated),IC50,Autotaxin,0.001 µM
same,clearance,[1],1.7 mL/min/kg
same,clearance,[2],9.3 mL/min/kg
same,Vd,[3],2.4 L/kg
same,half-life,[4],3 h
same,half-life,[5],14 h
same,AUC(0-t) at 24 h,[6],1390 ng·h/mL
same,AUC(0-t) at 24 h,[7],6590 ng·h/mL
same,AUC(0-t) at 24 h,[8],369 ng·h/mL
same,AUC(0-t) at 24 h,[9],614 ng·h/mL
same,Cmax,[10],376 ng/mL
same,Cmax,[11],89 ng/mL
same,Tmax,[12],4 h
same,bioavailability,[13],34%
same,Fu,[14],0.45%
same,Fu,[15],0.66%
same,IC50,Cytochrome P450 1A2,> 10 µM
same,IC50,Cytochrome P450 2C19,> 10 µM
same,IC50,Cytochrome P450 2D6,> 10 µM
same,clearance,[16],6.09 mL/min/kg
same,AUC(0-t) at 24 h,[17],3020 ng·h/mL
same,Cmax,[18],274 ng/mL
same,Cmax,[19],1070 ng/mL
same,Cmax,[20],823 ng/mL
same,Tmax,[21],3 h
same,Tmax,[22],3 h
same,bioavailability,[23],51%
same,Fu,[24],0.599%
same,fCmax,[25],1.5 nM
same,Activity,Rattus norvegicus [26],48%
same,Activity,Rattus norvegicus [27],61%
same,IC50,[28],> 10 µM
same,IC50,[29],> 10 µM
same,IC50,[30],> 10 µM
same,IC50,[31],> 10 µM
same,concentration at 6 h,[32],188 ng/mL
same,Activity,Rattus norvegicus [33],Dose-Dependent Effect
